Measured values published in patent US20060258581A1, “Methods and composition for derepressions of IAP-inhibited caspase” (priority 2001, published 2006).
“Also recorded” adds a separate entry of the source.

Columns and labels:
[1] = test system: normal bone marrow mononuclear cells; experiment: Normal bone marrow mononuclear cells versus Jurkat, Annexin V, 20 hours; format: cell-based; settings: 5 μM
Experimental: After incubation, cells were washed, stained with FITC-conjugated Annexin V antibody and propidium iodide, and fluorescence measured by flow cytometry as described above.

[2] = test system: PC-3 and LNCaP prostate cancer cell lines; experiment: Clonogenic survival (colony formation) assay; format: cell-based; settings: Homo sapiens
Experimental: In addition to short-term cytotoxicity assays selected polyphenylurea compounds were tested for effects on clonogenic survival of cancer cells in colony formation assays, which can be considered a more stringent test of anticancer activity.

[3] = test system: PPC1 prostate cancer cells; experiment: PPC1 prostate cancer xenograft in Balb/C nu-/nu- mice; format: in vivo; settings: 30 mg/kg i.p. for 2 or 3 days
From the text: Similar data was obtained using TPI 1396-22 (see FIGS. 33a and 33b). […] In FIG. 33b, the mice were sacrificed at day 19 and the tumors excised and weighed.

[4] = test system: HCT-116 colon cancer cells; experiment: HCT-116 colon cancer xenograft in Balb/C nu-/nu- mice; format: in vivo; settings: 30 mg/kg i.p. on days 6, 7 and 8
Experimental: Additional experiments were performed using a different tumor xenograft model. HCT-116 colon cancer cells (2.5 million) were injected subcutaneously in the flanks of female Balb/C nu-/nu-mice. […] Tumor volume was measured by external calipers at least twice weekly for 19 days (see FIG. 32c). On day 19, the mice were sacrificed and the tumors were excised and weighed.

**Q.** Which “toxicity to normal bone marrow cells” value [1] does the source give for COc1ccc(CCN2CCC[C@@H]2CN(C(=O)Nc2ccccc2)[C@@H](CNC(=O)Nc2ccccc2)CC2CCCCC2)cc1 [TPI 1396-34] here?
**A.** little toxicity

**Q.** What about the activity at 10 µM ([2]; 10 μM, read-out: colony formation, % of control) of the same compound?
**A.** < 5%

**Q.** And the EC50 ([2]; 3 days culture, colonies counted one week later, read-out: average EC50 dose, clonogenic survival)?
**A.** 3 µM

**Q.** What about the “tumor size / growth, PPC1 xenograft” value [3] of the same compound?
**A.** reduced tumor size; also recorded: significantly slowed the rate of growth

**Q.** What about the “tumor size / growth, HCT116 xenograft” value [4] of the same compound?
**A.** tumor size was reduced; also recorded: significantly slowed the rate of growth
